“Also recorded” adds a separate entry of the source.
B1: Spacer: full-length pRb2/p130 spacer domain, amino acids 616-828 (SEQ ID NO:20) (protein, listed as Homo sapiens)
chain: VPTCEEVMPPQNLERADEICIAGSPLTPRRVTEVRADTGGLGRSITSPTTLYDRYSSPPASTTRRRLFVENDSPSDGGTPGRMPPQPLVNAVPVQNVSGETVSVTPVPGQTLVTMATATVTANNGQTVTIPVQGIANENGGITFFPVQVNVGGQAQAVTGSIQPLSAQALAGSLSSQQVTGTTLQVPGQVAIQQISPGGQQQKQGQSVTSSSN

Experiments:
cdk2 = assay: in vitro cdk2 kinase assay with GST-fusion proteins, histone H1 substrate; type: biochemical; design: key to Kinase assay (inhibitory effect on cdk2 activity): P=positive; N=negative; conditions: for Kinase assay (inhibitory effect on cdk2 activity): 0.1 μg GST-fusion protein, cdk2 immunoprecipitated from NIH/3T3; for inhibitory effect on cdk2 activity / histone H1 phosphorylation in vitro: GST-fusion protein added to cdk2 immunoprecipitate from NIH/3T3
Experimental: Constructs preparation: A prokaryotic expression vector pGEX-2T (Stratagene Inc., La Jolla Calif.) and polymerase chain reaction (PCR) were used to generate chimeric Glutathione-S-Transferase constructs. The primers used by PCR to amplify the fragments that were subcloned in the pGEX-2T were derived from the 5′ and 3′ ends of different regions of the spacer domain of […]. The mammalian expression vector pEF6/V5-His TOPO (Invitrogen Corp, Carlsbad, Calif.) was used to generate the constructs pEF6/V5-His-spacer and pEF6/V5-His-310 that express the correspondent genes with a C-terminal V5 epitope. The spacer and the 310 fragments were PCR-amplified with the respective primers (Table 1) to generate 3′ends of the cDNAs without stop codons and were subsequently subcloned into pEF6/V5-His TOPO (Invitrogen Corp, Carlsbad, Calif.) according to the manufacturer's instructions to obtain cDNAs coding for C-terminal fusion proteins. All generated constructs were confirmed by automated sequencing. Information regarding the primers is available upon request.
GST Fusion protein preparation: XL1-Blue bacteria carrying the pGEX-2T vectors were grown to mid log phase and then induced to express protein by adding 0.25 mM of isopropyl-1-thio-β-D-galactopyranoside (IPTG, Roche Applied Science, Indianapolis, Ind.). The cultures were shaken for 4 h; bacteria were then pelleted and resuspended in NENT buffer (20 mM Tris pH 8, 100 mM NaCl, 1 mM EDTA, 0.5% NP-40). Cell suspensions were sonicated, pelleted and the supernatant collected. The remaining bacteria were then resuspended in NENT buffer plus 2% of N-Lauryl-Sarcosine, pelleted and the supernatants were collected again. The combined supernatants were incubated with Glutathione agarose (Amersham Biosciences, Piscataway, N.J.) overnight at 4° C. The agarose was then pelleted and washed three times in NENT buffer.
Kinase assays: Cell lysates from NIH/3T3 were prepared by resuspending pelleted cells in 500 μl of lysis buffer (50 mM Tris, 5 mM EDTA, 250 mM NaCl, 50 mM NaF, 0.1% Triton, 0.1 mM Na3VO4, plus protease inhibitors). An equal amount of protein for each fraction (100 μg) was immunoprecipitated with a polyclonal anti-cdk2 antibody (De Luca et al., 1997, J Biol Chem, 272, 20971-4). The complexes were pulled down with protein A-Sepharose and washed three times with lysis buffer and twice with lysis buffer containing 400 mM NaCl. The complexes were equilibrated in kinase assay buffer (20 mM HEPES pH 7.4, 10 mM MgAc, […], 1 mM DTT). In order to detect the in vitro inhibition of cdk2 activity, each sample was incubated with an equal amount (0.1 μg) of each pGEX-2T fusion protein, in a final volume of 20 μl of kinase buffer, using 5 μCi/sample of γ-ATP (Amersham Biosciences, Piscataway, N.J.) and 2 μg of Histone H1 for 30 minutes at 30° C. Kinase assays were repeated at least three times, giving an inter assay standard deviation within 10% after normalization for protein amount. In order to evaluate the in vivo inhibition of cdk2 activity, cdk2 was immunoprecipitated, as described above, from NIH/3T3 cells transiently transfected with 5 μg of pEF6/V5-spacer, pEF6/V5-Spa310 or the vector alone as a control. The immunocomplexes were split in two tubes. A half of each sample was assayed for cdk2 activity in a final volume of 20 μl of kinase buffer with 5 μCi/sample of γ-ATP and 2 μg of Histone H1 for 30 min. at 30° C.; the second one was tested in western blot analysis to confirm that all the samples contained the amount of cdk2 immunoprecipitated. Briefly the samples were separated into 12% SDS polyacrylamide gels (SDS-PAGE), and then transferred into a nitrocellulose membrane (Schleicher & Schuell, Germany). The membrane was blocked with 5% non-fat dry milk in 1×TBST and incubated with the polyclonal anti-cdk2 antibody described above. […]

NIH/3T3 cells = assay: cell cycle analysis by flow cytometry (FACS); type: cell-based; conditions: NIH/3T3 transiently transfected, EGFP-gated; 48 h after transfection; propidium iodide
Experimental: A marker plasmid expressing enhanced green fluorescent protein (EGFP)-spectrin was included in the transfection mixture. Control cells, which were not transfected with EGFP-spectrin, were used as the EGFP-negative population. Cells were harvested and examined for their cell cycle states by fluorescence-activated cell sorter (FACS) analysis. After harvest, cells were fixed by adding ice-cold 70% ethanol while vortexing. Fixed cells were stored at 4° C. for at least 30 min and then washed once with PBS. Cells were then stained with 10 μg/ml propidium iodide (Roche Applied Science, Indianapolis, Ind.), 250 μg/ml RNase (Sigma, St. Louis, Mo.) in PBS and incubated at 37° C. for 30 min in the dark. Transfected cells were gated according to their EGFP expression and the DNA content was determined by flow cytometry analysis. The percentage of cells in the different phases of the cell cycle was measured with a FACS Calibur instrument (Becton-Dickinson, San Jose, Calif.) and the data obtained were analyzed by WinMDI 2.8 software. […]
In FIG. 5a, three plasmids were co-expressed with EGFP-spectrin, in a 1:10 ratio, in transient transfection assays. Cells were harvested 48 hours after transfection, stained with propidium iodide and analyzed by flow cytometric gating for both GFP and propidium iodide. […]

Row | Molecule | Kinase assay (inhibitory effect on cdk2 activity) (cdk2) | inhibitory effect on cdk2 activity / histone H1 phosphorylation in vitro (cdk2) | effect on cell cycle distribution (NIH/3T3 cells)
1 | Spa310: pRb2/p130 amino acids 641-679 (39 amino acids long), SEQ ID NO:3; LTPRRVTEVRADTGGLGRSITSPTTLYDRYSSPPASTTR (listed as Homo sapiens) | P | able to maintain the specific inhibitory ability; also recorded: strongly and similarly inhibited cdk2 activity | induced a G0/G1 arrest of the cell cycle
2 | B1 | P | strongly and similarly inhibited cdk2 activity | induced a G0/G1 arrest of the cell cycle

— patent publication US20090054333A1, “Peptide inhibitors of cyclin-dependent kinase activity and uses thereof” (priority 2006, published 2009)
